We go through ten compounds from paper PMC10460844, “Real‐Time Monitoring of Multitarget Antimicrobial Mechanisms of Peptoids Using Label‐Free Imaging with Optical Diffraction Tomography” (Advanced Science, 2023).

The nature of series [1]: Analytical reversed-phase HPLC elution (hydrophobicity). The note with it: Table S1; analytical RP-HPLC, SunFire C18, water/ACN + 0.1% TFA, 5 to 100% B linear over 30 min, 1 mL/min, UV 220 nm; approximate comparison of hydrophobicity. It is filed as physicochemical. The method, then:
7. HPLC chromatogram, retention time (tR), and LC-MS data
HPLC analysis of peptoids was conducted using a Waters HPLC system equipped with a Waters 2489 UV/Visible Detector, 1525 Binary HPLC Pump, 2707 Autosampler, 5CH column oven, and a C18 column (SunFire C18, 4.6 × 250 mm, 5 μm; Waters Corp., Milford, MA, USA). The mobile phases were deionized water (A, with + 0.1% TFA) and acetonitrile (ACN; B, with + 0.1% TFA). Before sample injection, the column was conditioned with 5% B for 10 min. Then, the mobile phase was maintained at 5% B for 2 min, followed by increasing B to 100% using a linear gradient over 30 min. At this point, 100% B was maintained for 5 additional min. The flow rate of the mobile phase was 1 mL/min. The sample was detected by measuring absorbance at 220 nm. […]

In series [2] the test system is rat erythrocytes. Kind of series: Hemolysis assay. The note with it: for HC10 / HC50: pH 7.4. It is filed as cell-based. The method, then: The hemolysis assay was performed using rat erythrocytes in phosphate‐buffered saline (PBS), as reported by Mendes et al.^[ [45] ^] Animal studies were approved by the Laboratory Animal Resource Center of Gwangju Institute of Science and Technology. Blood was collected from a 13‐week‐old male Sprague‐Dawley rat in tubes containing 158 USP units of sodium heparin to prevent coagulation and centrifuged at 1000 rpm for 10 min at 4 °C. Plasma was removed carefully and erythrocyte pellets were washed three times with PBS (35 mM phosphate, pH 7.4, 150 mM NaCl). Next, 150 µL of a 10% erythrocyte suspension was mixed with 50 µL of serially diluted peptoids (0–100 µM) in a 96‐well black polypropylene plates (Greiner, Kremsmünster, Austria). Untreated erythrocytes and cells lysed by the addition of 1% Triton X‐100 were used as negative and positive controls, respectively, with the 1% Triton X‐100‐treated wells being accepted to represent 100% hemolysis. The reaction mixture was incubated at 37 °C for 60 min, and the plates were centrifuged at 1000 rpm for 15 min. Aliquots (150 µL) of the supernatant were transferred to fresh 96‐well plates, and the absorbance of each well was measured at 540 nm using a microplate reader. Hemolysis induced by peptoids was calculated as the percentage value of Triton X‐100 lysed cells. The percentage of hemolysis by the extracts was calculated according to the following formula: % hemolysis = [(Abs 540 nm in the peptoid solution – Abs 540 nm in PBS) / (Abs 540 nm in 1% Triton X‐100 – Abs 540 nm in PBS)] × 100. HC10 and HC50 were defined as the peptoid concentrations that caused 10% and 50% hemolysis in rat erythrocytes, respectively. H max indicates the percentage of hemolysis observed at the maximum peptoid concentration, 100 µM throughout this study.

Square brackets hold non-standard residues; d marks the D form. Peptide text beside a SMILES is read from it. Gly(N(CH2)2(3-indolyl)) = O=C(O)CNCCc1c[nH]c2ccccc12; Nspe = C[C@H](NCC(=O)O)c1ccccc1; Nphe = O=C(O)CNCc1ccccc1; Nlys = NCCCCNCC(=O)O A value given as a limit tells only on which side of the number the result lay.

What is called HC50 is the concentration giving 50% haemolysis. A lower HC50 goes with more damage to red cells. As for `C[C@@H](c1ccccc1)N(CC(=O)N(CCCCN)CC(=O)N(CC(=O)N(CC(=O)N(CCCCN)CC(=O)N(CC(=O)N(CC(=O)N(CCCCN)CC(=O)N(CC(=O)N(CC(=O)N(CC(N)=O)Cc1ccccc1)[C@@H](C)c1ccccc1)[C@@H](C)c1ccccc1)[C@@H](C)c1ccccc1)[C@@H](C)c1ccccc1)[C@@H](C)c1ccccc1)[C@@H](C)c1ccccc1)C(=O)CN(C(=O)CN(CCCCN)C(=O)CNCc1ccccc1)[C@@H](C)c1ccccc1` [peptoid 42] (H-[Nphe][Nlys][Nspe][Nspe][Nlys][Nspe][Nspe][Nlys][Nspe][Nspe][Nlys][Nspe][Nspe][Nphe]-NH2), in series [1], the HPLC elution was determined as 57.7 % MeCN. For the same compound, in series [2], the “Hmax (100 µM)” value amounted to 105.9±1.1%, the HC10 was under 3.1 µM and the HC50 is recorded as 6.6 µM.
The matching figures for `C[C@@H](c1ccccc1)N(CC(=O)N(CCCCN)CC(=O)N(CC(=O)N(CC(=O)N(CCCCN)CC(=O)N(CC(=O)N(CC(=O)N(CCCCN)CC(=O)N(CCCCN)CC(N)=O)[C@@H](C)c1ccccc1)[C@@H](C)c1ccccc1)[C@@H](C)c1ccccc1)[C@@H](C)c1ccccc1)C(=O)CN(C(=O)CNCCCCN)[C@@H](C)c1ccccc1` [peptoid 49] (H-[Nlys][Nspe][Nspe][Nlys][Nspe][Nspe][Nlys][Nspe][Nspe][Nlys][Nlys]-NH2): 46.6 % MeCN, 0.3±0.3%, over 100 µM and over 100 µM.
The matching figures for `C[C@@H](c1ccccc1)N(CC(=O)N(CCCCN)CC(=O)N(CCc1c[nH]c2ccccc12)CC(=O)N(CCc1c[nH]c2ccccc12)CC(N)=O)C(=O)CN(CCCCN)C(=O)CN(CCCCN)C(=O)CN(Cc1ccccc1)C(=O)CN(Cc1ccccc1)C(=O)CN(CCCCN)C(=O)CN(C(=O)CN(C(=O)CNCCCCN)[C@@H](C)c1ccccc1)[C@@H](C)c1ccccc1` [peptoid 40] (H-[Nlys][Nspe][Nspe][Nlys][Nphe][Nphe][Nlys][Nlys][Nspe][Nlys][Gly(N(CH2)2(3-indolyl))][Gly(N(CH2)2(3-indolyl))]-NH2): 47.5 % MeCN, 8.9±0.2%, over 100 µM and over 100 µM.
For `C[C@@H](c1ccccc1)N(CC(=O)N(CCCCN)CC(=O)N(CC(=O)N(CC(=O)N(CCCCN)CC(=O)N(CCc1c[nH]c2ccccc12)CC(=O)N(CCc1c[nH]c2ccccc12)CC(N)=O)[C@@H](C)c1ccccc1)[C@@H](C)c1ccccc1)C(=O)CN(CCCCN)C(=O)CN(CCCCN)C(=O)CN(C(=O)CN(C(=O)CNCCCCN)[C@@H](C)c1ccccc1)[C@@H](C)c1ccccc1` [peptoid 30] (H-[Nlys][Nspe][Nspe][Nlys][Nlys][Nspe][Nlys][Nspe][Nspe][Nlys][Gly(N(CH2)2(3-indolyl))][Gly(N(CH2)2(3-indolyl))]-NH2) the same measures were 48.8 % MeCN, 8.4±0.5%, over 100 µM and over 100 µM.
`C[C@@H](c1ccccc1)N(CC(=O)N(CCCCN)CC(=O)N(CC(=O)N(CC(=O)N(CCCCN)CC(=O)N(CC(=O)N(CC(=O)N(CCCCN)CC(=O)N(CC(=O)N(CC(=O)N(CCCCN)CC(=O)N(CCCCN)CC(N)=O)[C@@H](C)c1ccccc1)[C@@H](C)c1ccccc1)[C@@H](C)c1ccccc1)[C@@H](C)c1ccccc1)[C@@H](C)c1ccccc1)[C@@H](C)c1ccccc1)C(=O)CNCCc1c[nH]c2ccccc12` [peptoid 61] (H-[Gly(N(CH2)2(3-indolyl))][Nspe][Nlys][Nspe][Nspe][Nlys][Nspe][Nspe][Nlys][Nspe][Nspe][Nlys][Nlys]-NH2): the HPLC elution in series [1] amounted to 51.2 % MeCN. Moreover, in series [2], the “Hmax (100 µM)” value stood at 79.9±0.7%, the HC10 stood at 19.3 µM and the HC50 was found to be 65.4 µM.
The matching figures for `C[C@@H](c1ccccc1)N(CC(=O)N(CCCCN)CC(=O)N(CC(=O)N(CC(=O)N(CCCCN)CC(=O)N(CC(=O)N(CC(=O)N(CCCCN)CC(=O)N(CCc1c[nH]c2ccccc12)CC(=O)N(CCc1c[nH]c2ccccc12)CC(N)=O)[C@@H](C)c1ccccc1)[C@@H](C)c1ccccc1)[C@@H](C)c1ccccc1)[C@@H](C)c1ccccc1)C(=O)CN(CCCCN)C(=O)CNCCCCN` [peptoid 31] (H-[Nlys][Nlys][Nspe][Nlys][Nspe][Nspe][Nlys][Nspe][Nspe][Nlys][Gly(N(CH2)2(3-indolyl))][Gly(N(CH2)2(3-indolyl))]-NH2): 50.2 % MeCN, 18.4±5.0%, 59.0 µM and over 100 µM.
With `C[C@@H](c1ccccc1)N(CC(=O)N(CCCCN)CC(=O)N(CCc1c[nH]c2ccccc12)CC(=O)N(CCc1c[nH]c2ccccc12)CC(N)=O)C(=O)CN(CCCCN)C(=O)CN(CCCCN)C(=O)CN(C(=O)CN(C(=O)CN(CCCCN)C(=O)CN(Cc1ccccc1)C(=O)CN(Cc1ccccc1)C(=O)CNCCCCN)[C@@H](C)c1ccccc1)[C@@H](C)c1ccccc1` [peptoid 41] (H-[Nlys][Nphe][Nphe][Nlys][Nspe][Nspe][Nlys][Nlys][Nspe][Nlys][Gly(N(CH2)2(3-indolyl))][Gly(N(CH2)2(3-indolyl))]-NH2), the HPLC elution in series [1] is reported as 47.5 % MeCN. Moreover, in series [2], the “Hmax (100 µM)” value is 7.1±0.1%, the HC10 is on record as over 100 µM and the HC50 is recorded as over 100 µM.
`C[C@@H](c1ccccc1)N(CC(N)=O)C(=O)CN(C(=O)CN(CCCCN)C(=O)CN(C(=O)CN(C(=O)CN(CCCCN)C(=O)CN(C(=O)CN(CCCCN)C(=O)CN(CCCCN)C(=O)CN(CCc1c[nH]c2ccccc12)C(=O)CN(CCc1c[nH]c2ccccc12)C(=O)CNCCCCN)[C@@H](C)c1ccccc1)[C@@H](C)c1ccccc1)[C@@H](C)c1ccccc1)[C@@H](C)c1ccccc1` [peptoid 34]: in series [1], the HPLC elution is 48.6 % MeCN. Besides, in series [2], the “Hmax (100 µM)” value stood at 8.5±1.1%, the HC10 is listed as over 100 µM and the HC50 was over 100 µM.
Take `C[C@@H](c1ccccc1)N(CC(=O)N(CCCCN)CC(=O)N(CC(=O)N(CC(=O)N(CCCCN)CC(=O)N(CC(=O)N(CC(=O)N(CCCCN)CC(=O)N(CC(=O)N(CC(=O)N(CCc1c[nH]c2ccccc12)CC(N)=O)[C@@H](C)c1ccccc1)[C@@H](C)c1ccccc1)[C@@H](C)c1ccccc1)[C@@H](C)c1ccccc1)[C@@H](C)c1ccccc1)[C@@H](C)c1ccccc1)C(=O)CN(C(=O)CNCCCCN)[C@@H](C)c1ccccc1` [peptoid 4] (H-[Nlys][Nspe][Nspe][Nlys][Nspe][Nspe][Nlys][Nspe][Nspe][Nlys][Nspe][Nspe][Gly(N(CH2)2(3-indolyl))]-NH2): in series [1], the HPLC elution worked out at 57.0 % MeCN. In addition, in series [2], the “Hmax (100 µM)” value was 103.2±0.9%, the HC10 is given as under 6.3 µM and the HC50 was determined as 6.7 µM.
`C[C@@H](c1ccccc1)N(CC(N)=O)C(=O)CN(C(=O)CN(CCCCN)C(=O)CN(C(=O)CN(C(=O)CN(CCCCN)C(=O)CN(CCc1c[nH]c2ccccc12)C(=O)CN(CCc1c[nH]c2ccccc12)C(=O)CN(CCCCN)C(=O)CN(CCc1c[nH]c2ccccc12)C(=O)CN(CCc1c[nH]c2ccccc12)C(=O)CNCCCCN)[C@@H](C)c1ccccc1)[C@@H](C)c1ccccc1)[C@@H](C)c1ccccc1` [peptoid 21]: the HPLC elution in series [1] is given as 53.2 % MeCN. Moreover, in series [2], the “Hmax (100 µM)” value amounted to 83.7±2.0%, the HC10 is 23.2 µM and the HC50 was 64.9 µM.
